Values of other authors as cited in patent US20230338417A1, “Improved Pharmaceutical Preparation” (priority 2020, published 2023).

## [O-][Cl+2]([O-])O [chloric acid]
  Acid dissociation constant as pKa at 298K: 0

## peroxochloric acid
  Acid dissociation constant as pKa at 298K: approx. 6.2
